In PubChem BioAssay (NCI):
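All cell lines were grown in 96-well plates and treated with compound for 48 hours. GI50: concentration for 50% inhibition of growth. At the TGI there is no net growth.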

What was measured:
Experiment in all cases: NCI anticancer screen, dose series, 48 h
SN12C renal = test system: SN12C renal
DU-145 prostate = test system: DU-145 prostate
UO-31 renal = test system: UO-31 renal
SK-OV-3 ovarian = test system: SK-OV-3 ovarian
NCI-H460 lung = test system: NCI-H460 lung
HCC-2998 colon = test system: HCC-2998 colon
OVCAR-3 ovarian = test system: OVCAR-3 ovarian
COLO 205 colon = test system: COLO 205 colon
SNB-19 CNS = test system: SNB-19 CNS
MOLT-4 leukemia = test system: MOLT-4 leukemia
RXF 393 renal = test system: RXF 393 renal
CCRF-CEM leukemia = test system: CCRF-CEM leukemia
LOX IMVI melanoma = test system: LOX IMVI melanoma
SW-620 colon = test system: SW-620 colon
HS 578T breast = test system: HS 578T breast
MDA-MB-231 breast = test system: MDA-MB-231 breast
MCF7 breast = test system: MCF7 breast
SR leukemia = test system: SR leukemia
A549 NSCLC = test system: A549 NSCLC
KM12 colon = test system: KM12 colon
SF-539 CNS = test system: SF-539 CNS
K-562 leukemia = test system: K-562 leukemia
NCI-H522 lung = test system: NCI-H522 lung
T-47D breast = test system: T-47D breast
ACHN renal = test system: ACHN renal
786-0 renal = test system: 786-0 renal
SK-MEL-5 melanoma = test system: SK-MEL-5 melanoma
BT-549 breast = test system: BT-549 breast
MALME-3M melanoma = test system: MALME-3M melanoma
PC-3 prostate = test system: PC-3 prostate
SK-MEL-28 melanoma = test system: SK-MEL-28 melanoma
NCI-H226 lung = test system: NCI-H226 lung
M14 melanoma = test system: M14 melanoma
UACC-62 melanoma = test system: UACC-62 melanoma
HCT-15 colon = test system: HCT-15 colon
HOP-92 NSCLC = test system: HOP-92 NSCLC
A498 renal = test system: A498 renal
SF-268 CNS = test system: SF-268 CNS
SF-295 CNS = test system: SF-295 CNS
HT29 colon = test system: HT29 colon
SNB-75 CNS = test system: SNB-75 CNS
OVCAR-4 ovarian = test system: OVCAR-4 ovarian
OVCAR-8 ovarian = test system: OVCAR-8 ovarian
CAKI-1 renal = test system: CAKI-1 renal
SK-MEL-2 melanoma = test system: SK-MEL-2 melanoma
TK-10 renal = test system: TK-10 renal
HCT-116 colon = test system: HCT-116 colon
NCI/ADR-RES ovarian = test system: NCI/ADR-RES ovarian
RPMI-8226 leukemia = test system: RPMI-8226 leukemia
HOP-62 NSCLC = test system: HOP-62 NSCLC
IGROV1 ovarian = test system: IGROV1 ovarian
HL-60(TB) leukemia = test system: HL-60(TB) leukemia
NCI-H23 lung = test system: NCI-H23 lung
U251 CNS = test system: U251 CNS
UACC-257 melanoma = test system: UACC-257 melanoma
MDA-MB-435 = test system: MDA-MB-435
EKVX NSCLC = test system: EKVX NSCLC
OVCAR-5 ovarian = test system: OVCAR-5 ovarian

Cc1cccc2c(N)c3ccccc3nc12
GI50 (SN12C renal): 1.16 µM
TGI (SN12C renal): 12.7 µM
GI50 (DU-145 prostate): 1.53 µM
TGI (DU-145 prostate): 12.3 µM
GI50 (UO-31 renal): 0.595 µM
TGI (UO-31 renal): 6.09 µM
GI50 (SK-OV-3 ovarian): 2.12 µM
TGI (SK-OV-3 ovarian): 17.4 µM
GI50 (NCI-H460 lung): 0.523 µM
TGI (NCI-H460 lung): 10.5 µM
GI50 (HCC-2998 colon): 1.24 µM
TGI (HCC-2998 colon): 4.35 µM
GI50 (OVCAR-3 ovarian): 2.13 µM
TGI (OVCAR-3 ovarian): 10 µM
GI50 (COLO 205 colon): 0.463 µM
TGI (COLO 205 colon): 2.31 µM
GI50 (SNB-19 CNS): 2.06 µM
TGI (SNB-19 CNS): 16.7 µM
GI50 (MOLT-4 leukemia): 0.556 µM
TGI (MOLT-4 leukemia): 11.1 µM
GI50 (RXF 393 renal): 1.36 µM
TGI (RXF 393 renal): 3.72 µM
GI50 (CCRF-CEM leukemia): 2.54 µM
TGI (CCRF-CEM leukemia): 10.2 µM
GI50 (LOX IMVI melanoma): 0.616 µM
TGI (LOX IMVI melanoma): 3.66 µM
GI50 (SW-620 colon): 0.699 µM
TGI (SW-620 colon): 11.9 µM
GI50 (HS 578T breast): 3.44 µM
TGI (HS 578T breast): 17.4 µM
GI50 (MDA-MB-231 breast): 1.26 µM
TGI (MDA-MB-231 breast): 5.26 µM
GI50 (MCF7 breast): 1.32 µM
TGI (MCF7 breast): 11.6 µM
GI50 (SR leukemia): 0.727 µM
TGI (SR leukemia): 13.3 µM
GI50 (A549 NSCLC): 1.02 µM
TGI (A549 NSCLC): 4.02 µM
GI50 (KM12 colon): 1.78 µM
TGI (KM12 colon): 12.2 µM
GI50 (SF-539 CNS): 1.09 µM
TGI (SF-539 CNS): 4.28 µM
GI50 (K-562 leukemia): 1.3 µM
TGI (K-562 leukemia): 13.5 µM
GI50 (NCI-H522 lung): 1.45 µM
TGI (NCI-H522 lung): 4.12 µM
GI50 (T-47D breast): 2.19 µM
TGI (T-47D breast): 6.85 µM
GI50 (ACHN renal): 0.561 µM
TGI (ACHN renal): 14.5 µM
GI50 (786-0 renal): 1.54 µM
TGI (786-0 renal): 7.49 µM
GI50 (SK-MEL-5 melanoma): 1.77 µM
TGI (SK-MEL-5 melanoma): 3.26 µM
GI50 (BT-549 breast): 3.23 µM
TGI (BT-549 breast): 12.9 µM
GI50 (MALME-3M melanoma): 1.39 µM
TGI (MALME-3M melanoma): 3.21 µM
GI50 (PC-3 prostate): 2.32 µM
TGI (PC-3 prostate): 8.17 µM
GI50 (SK-MEL-28 melanoma): 2.34 µM
TGI (SK-MEL-28 melanoma): 6.53 µM
GI50 (NCI-H226 lung): 1.44 µM
TGI (NCI-H226 lung): 6.19 µM
GI50 (M14 melanoma): 1.87 µM
TGI (M14 melanoma): 5.19 µM
GI50 (UACC-62 melanoma): 1.56 µM
TGI (UACC-62 melanoma): 4.6 µM
GI50 (HCT-15 colon): 0.67 µM
TGI (HCT-15 colon): 10.4 µM
GI50 (HOP-92 NSCLC): 2.18 µM
TGI (HOP-92 NSCLC): 6.05 µM
GI50 (A498 renal): 0.604 µM
TGI (A498 renal): 2.28 µM
GI50 (SF-268 CNS): 1.5 µM
TGI (SF-268 CNS): 9.22 µM
GI50 (SF-295 CNS): 1.67 µM
TGI (SF-295 CNS): 10.4 µM
GI50 (HT29 colon): 0.593 µM
TGI (HT29 colon): 3.58 µM
GI50 (SNB-75 CNS): 1.47 µM
TGI (SNB-75 CNS): 4.14 µM
GI50 (OVCAR-4 ovarian): 1.69 µM
TGI (OVCAR-4 ovarian): 11.7 µM
GI50 (OVCAR-8 ovarian): 0.94 µM
TGI (OVCAR-8 ovarian): 10.7 µM
GI50 (CAKI-1 renal): 0.966 µM
TGI (CAKI-1 renal): 11.6 µM
GI50 (SK-MEL-2 melanoma): 1.68 µM
TGI (SK-MEL-2 melanoma): 3.84 µM
GI50 (TK-10 renal): 1.78 µM
TGI (TK-10 renal): 8.27 µM
GI50 (HCT-116 colon): 0.454 µM
TGI (HCT-116 colon): 11.2 µM
GI50 (NCI/ADR-RES ovarian): 1.32 µM
TGI (NCI/ADR-RES ovarian): 12.8 µM
GI50 (RPMI-8226 leukemia): 2.47 µM
TGI (RPMI-8226 leukemia): 6.73 µM
GI50 (HOP-62 NSCLC): 0.854 µM
TGI (HOP-62 NSCLC): 5.3 µM
GI50 (IGROV1 ovarian): 2.18 µM
TGI (IGROV1 ovarian): 9.67 µM
GI50 (HL-60(TB) leukemia): 2.41 µM
TGI (HL-60(TB) leukemia): 10.3 µM
GI50 (NCI-H23 lung): 1.81 µM
TGI (NCI-H23 lung): 7.49 µM
GI50 (U251 CNS): 2.19 µM
TGI (U251 CNS): 7.84 µM
GI50 (UACC-257 melanoma): 1.87 µM
TGI (UACC-257 melanoma): 3.63 µM
GI50 (MDA-MB-435): 1.67 µM
TGI (MDA-MB-435): 4.54 µM
GI50 (EKVX NSCLC): 2.76 µM
TGI (EKVX NSCLC): 9.99 µM
GI50 (OVCAR-5 ovarian): 1.37 µM
TGI (OVCAR-5 ovarian): 11.9 µM
